Experiments:
[1] = test system: MCF-7 cells; assay: In vitro cytotoxic activity, MTT assay, MCF-7; format: cell-based, human
Procedure: (§1) MCF-7 (human breast cancer) cells, obtained from Sigma-Aldrich Chemie GmbH, Taufkirchen, Germany, were propagated in RPMI-1640 supplemented with 10% heat inactivated FBS, 2 mM L-glutamine, and 1% standard antibiotic solution. Cells were incubated in a 5% CO2 humidified incubator at 37 °C and passaged bi-weekly. The in vitro anti-proliferative activity of the newly synthesized derivatives was assayed using standard MTT technique. Results were expressed as IC50. Experiments were repeated at least in triplicate, to obtain good reproducibility between replicate wells with standard errors below 10%. Furthermore, the cytotoxic effects of the prepared derivatives were evaluated against normal nonmalignant cells, non-tumorigenic MCF-10A, in order to find out if the synthesized derivatives have toxicity against normal cells. Additionally, results were compared with reference compounds (cisplatin and milaplatin) as positive controls.

[2] = test system: MCF-10A cells; assay: In vitro cytotoxicity against normal non-tumorigenic cells, MTT assay; format: cell-based; conditions: Homo sapiens, normal non-tumorigenic MCF-10A cells, read-out: IC50 (Mean ± SEM) MCF-10A
Procedure: as §1

[3] = test system: MCF-7 xenografts; assay: In vivo breast cancer mouse xenograft model; set-up: species or system nude mice
Procedure: The breast cancer xenograft model protocol was approved by the Institutional Animal Use and Care Committee of the University of Alabama at Birmingham (50-01-05-08B). Female athymic pathogen-free nude mice (nu/nu, 4–6 weeks) were used. Firstly, MCF-7 xenografts were initiated by implanting pellets slowly releasing estrogen for two months (1.7mg 17β-estradiol/pellet) subcutaneously in the female nude mice. After 24 h, confluent MCF-7 cells were harvested, washed two times with serum-free medium, re-suspended and injected subcutaneously (s.c.) (5 × 10^6 cells, total volume 0.2 mL) into the left inguinal area of the mice. Caliper measurement was used to measure tumor growth in two perpendicular diameters of the implant after 48 h, and its volume was determined. Mice grafted with MCF-7 were divided into different groups (7–10 mice/group). Untreated mice received the solvent only. Treated groups received different prepared derivatives as previously described.

[4] = target: T1, p53 ubiquitination (GST-tagged HDM2) (Homo sapiens, UniProt Q00987); assay: In vitro p53 ubiquitination assay; format: biochemical
T1 construct: GS4b-MDM2 RING beads were prepared as above and were used in place of the full-length MDM2; made in house; host or cells: Escherichia coli BL21
T1 sequence (Q00987 whole entry): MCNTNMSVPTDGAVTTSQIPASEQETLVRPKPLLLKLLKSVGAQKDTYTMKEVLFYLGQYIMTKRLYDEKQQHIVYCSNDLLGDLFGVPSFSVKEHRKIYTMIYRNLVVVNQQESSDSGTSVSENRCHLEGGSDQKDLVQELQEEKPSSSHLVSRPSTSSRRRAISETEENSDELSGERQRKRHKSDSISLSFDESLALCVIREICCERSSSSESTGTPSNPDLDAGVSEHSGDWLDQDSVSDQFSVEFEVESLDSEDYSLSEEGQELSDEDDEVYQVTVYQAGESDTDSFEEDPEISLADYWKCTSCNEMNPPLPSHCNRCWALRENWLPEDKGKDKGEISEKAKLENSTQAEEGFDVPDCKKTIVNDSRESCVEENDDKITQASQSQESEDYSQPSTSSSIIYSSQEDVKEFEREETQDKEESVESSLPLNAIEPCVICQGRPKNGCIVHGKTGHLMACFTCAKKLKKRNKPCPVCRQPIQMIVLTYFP
Procedure: Different prepared derivatives were evaluated for their inhibitory potential against p53 ubiquitination. The method is based on incubating different compounds with GST-tagged HDM2, immobilized on glutathione-Sepharose, p53, ubiquitin, E1 and E2 (UbcH5B) ligases. The buffer contained ATP as detailed by Gomha and Abdelaziz. The reaction products were then resolved by SDSPAGE and p53 ubiquitination and were quantified by Western blotting using an anti-p53 antibody.
Briefly, rGSH-S-transferase-tagged MDM2 (GST-MDM2) was expressed in Escherichia coli BL21 cells using 1 mM isopropyl-thio-b-D-galactoside for 3 h. The enzyme was then purified on glutathione-sepharose beads (Amersham). Beads were washed with Tris (pH 7.5). The reaction contained fluorescent ubiquitin (5 µg; Invitrogen), 50 ng mammalian E1 (Enzo), 200 ng human rUbcH5B E2 (Enzo), 200 ng His-p53 (Enzo) and buffer [50 mM Tris pH 8,2 mM dithiothreitol, 5 mM MgCl2, 2 mM adenosine triphosphate (ATP)]. The MPD-compound or control mixture was dose-titrated onto GS4b-MDM2 beads. Incubation at 37 °C was followed by shaking (1200 rpm, 1 h). The reaction was terminated with 3× sodium dodecyl sulfate sample buffer. Finally, unbound fluorescent ubiquitin was drained and the total fluorescent ubiquitin signal was measured using a plate reader (Safire).
The procedure was performed similar to the aforementioned protocol except that 5 µg unlabeled ubiquitin (Enzo) was used. Following incubation, resolving of reaction products was performed using sodium dodecyl sulfate PGE. Analysis was done by western blotting using anti-p53 DO-1. For the MDM2 RING auto-ubiquitination assay, GS4b-MDM2 RING beads were prepared as above and were used in place of the full-length MDM2.

[5] = test system: p53 ubiquitination; assay: In vivo ubiquitination of p53 (transfected cells); format: cell-based
Procedure: In vivo ubiquitination of p53 was assayed according to [38] Cells were grown for 24 h (50% confluency) before transfection of 1 µg p53, 4 µg MDM2 and 1 µg HIS-ubiquitin with Gene Juice reagent. Grown for another 20 h, cells were exposed to prepared derivatives or controls for 6 h and MG132 for 4 h, then washed and collected in PBS, where 5% of the solution was kept as an input. The remaining pelleted cells (95% after centrifugation) were lysed in 700 µL of ubiquitin buffer A (6 M guanidinium HCl, 300 mM NaCl, 50 mM phosphate pH 8.0, 100 µg/mL N-ethylmaleimide), and sonicated for 5 min at 20% amplitude. Lysates were incubated overnight with Invitrogen Dynabeads His-Tag matrix and washed once with ubiquitin buffers A, B, C and phosphate buffered saline (ubiquitin buffer B: Mix ubiquitin buffer A and ubiquitin buffer C 1:1; ubiquitin buffer C: 300 mM NaCl, 50 mM phosphate pH 8.0, 100 µg/mL N-ethylmaleimide). The washed lysates were resolved by 8% sodium dodecyl sulfate–polyacrylamide gel electrophoresis, followed by immunoblotting with a p53 (DO-1) antibody.

[6] = target: EGFR (Homo sapiens, UniProt P00533); assay: EGFR kinase inhibition assay; format: biochemical; conditions: 8 μM ATP, poly(Glu,Tyr)4:1 substrate; read-out: IC50 (Mean ± SEM) EGFR
Chain of EGFR (P00533 25-1210): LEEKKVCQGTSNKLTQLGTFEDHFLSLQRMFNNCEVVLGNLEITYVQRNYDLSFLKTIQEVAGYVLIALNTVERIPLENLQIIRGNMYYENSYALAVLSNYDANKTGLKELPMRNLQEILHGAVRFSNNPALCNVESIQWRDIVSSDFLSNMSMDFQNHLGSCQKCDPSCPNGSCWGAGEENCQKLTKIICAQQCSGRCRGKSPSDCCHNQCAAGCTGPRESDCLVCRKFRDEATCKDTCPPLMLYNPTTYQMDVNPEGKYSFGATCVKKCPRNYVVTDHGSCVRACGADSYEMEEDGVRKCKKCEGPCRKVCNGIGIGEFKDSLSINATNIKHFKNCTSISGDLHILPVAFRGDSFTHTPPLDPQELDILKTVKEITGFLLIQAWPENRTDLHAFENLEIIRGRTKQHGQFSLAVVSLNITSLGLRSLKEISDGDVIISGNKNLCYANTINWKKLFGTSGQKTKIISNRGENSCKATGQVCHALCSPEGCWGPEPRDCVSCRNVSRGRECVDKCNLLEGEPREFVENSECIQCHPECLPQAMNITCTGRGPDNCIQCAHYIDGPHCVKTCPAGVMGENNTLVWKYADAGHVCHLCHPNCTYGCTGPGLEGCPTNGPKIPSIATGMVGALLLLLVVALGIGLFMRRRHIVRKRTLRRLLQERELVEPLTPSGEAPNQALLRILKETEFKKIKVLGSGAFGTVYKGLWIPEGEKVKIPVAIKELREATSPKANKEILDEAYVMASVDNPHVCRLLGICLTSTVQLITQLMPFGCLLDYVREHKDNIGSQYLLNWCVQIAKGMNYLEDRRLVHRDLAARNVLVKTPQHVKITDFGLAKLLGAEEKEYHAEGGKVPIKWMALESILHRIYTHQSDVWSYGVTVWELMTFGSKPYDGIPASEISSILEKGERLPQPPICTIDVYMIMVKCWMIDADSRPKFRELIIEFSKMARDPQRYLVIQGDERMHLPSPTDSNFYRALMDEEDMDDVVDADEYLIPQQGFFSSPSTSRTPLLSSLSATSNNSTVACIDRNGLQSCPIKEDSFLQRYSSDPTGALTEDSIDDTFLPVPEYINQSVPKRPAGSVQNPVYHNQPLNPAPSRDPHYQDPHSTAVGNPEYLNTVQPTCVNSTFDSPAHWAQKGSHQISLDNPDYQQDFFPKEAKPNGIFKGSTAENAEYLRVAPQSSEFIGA
Procedure: (§2) The EGFR and VEGFR-2 kinase activities were assayed as previously described. The assay was performed in 96-well plates pre-coated with 20 μg mL^−1 poly (Glu, Tyr)4:1 (Sigma-Aldrich Chemie GmbH, Taufkirchen, Germany) as a substrate. In each well, 85 μL of an 8 μM ATP solution and 10 μL of the compound were added at varying concentrations. Experiments were repeated three times. Reactions started with 5 μL of different kinases and incubation for 1 h at 37 °C. Plates were 3X-washed with PBS/0.1% Tween 20. Accordingly, 100 μL of anti-phosphotyrosine (PY99; 1:500 dilutions) antibody was added, and plates were incubated for another hour at room temperature. Plates were then 3X-washed, and addition of goat anti-mouse IgG horseradish peroxidase (100 μL; 1:2000 dilution) diluted in T-PBS containing 5 mg mL^−1 BSA followed. Plates were further incubated at room temperature for another hour, and then 3X-washed. Finally, 100 μL (developing solution, 0.03% H2O2, 2 mg mL^−1 o-phenylenediamine/citrate buffer, 0.1 M, pH 5.5) was added and incubation continued until color development. The reaction was stopped by 100 μL of 2M H2SO4, and the absorption was measured at 492 nm using a multiwell spectrophotometer (VERSAmax™). The inhibition rate (%) was calculated using the equation:Inhibition rate (%) = [1 − (A492/A492Control)] × 100%(1)

[7] = target: VEGFR-2 (Homo sapiens, UniProt P35968); assay: VEGFR-2 kinase inhibition assay; format: biochemical; conditions: 8 μM ATP, poly(Glu,Tyr)4:1 substrate; read-out: IC50 (Mean ± SEM) VEGFR-2
Chain of VEGFR-2 (P35968 20-1356): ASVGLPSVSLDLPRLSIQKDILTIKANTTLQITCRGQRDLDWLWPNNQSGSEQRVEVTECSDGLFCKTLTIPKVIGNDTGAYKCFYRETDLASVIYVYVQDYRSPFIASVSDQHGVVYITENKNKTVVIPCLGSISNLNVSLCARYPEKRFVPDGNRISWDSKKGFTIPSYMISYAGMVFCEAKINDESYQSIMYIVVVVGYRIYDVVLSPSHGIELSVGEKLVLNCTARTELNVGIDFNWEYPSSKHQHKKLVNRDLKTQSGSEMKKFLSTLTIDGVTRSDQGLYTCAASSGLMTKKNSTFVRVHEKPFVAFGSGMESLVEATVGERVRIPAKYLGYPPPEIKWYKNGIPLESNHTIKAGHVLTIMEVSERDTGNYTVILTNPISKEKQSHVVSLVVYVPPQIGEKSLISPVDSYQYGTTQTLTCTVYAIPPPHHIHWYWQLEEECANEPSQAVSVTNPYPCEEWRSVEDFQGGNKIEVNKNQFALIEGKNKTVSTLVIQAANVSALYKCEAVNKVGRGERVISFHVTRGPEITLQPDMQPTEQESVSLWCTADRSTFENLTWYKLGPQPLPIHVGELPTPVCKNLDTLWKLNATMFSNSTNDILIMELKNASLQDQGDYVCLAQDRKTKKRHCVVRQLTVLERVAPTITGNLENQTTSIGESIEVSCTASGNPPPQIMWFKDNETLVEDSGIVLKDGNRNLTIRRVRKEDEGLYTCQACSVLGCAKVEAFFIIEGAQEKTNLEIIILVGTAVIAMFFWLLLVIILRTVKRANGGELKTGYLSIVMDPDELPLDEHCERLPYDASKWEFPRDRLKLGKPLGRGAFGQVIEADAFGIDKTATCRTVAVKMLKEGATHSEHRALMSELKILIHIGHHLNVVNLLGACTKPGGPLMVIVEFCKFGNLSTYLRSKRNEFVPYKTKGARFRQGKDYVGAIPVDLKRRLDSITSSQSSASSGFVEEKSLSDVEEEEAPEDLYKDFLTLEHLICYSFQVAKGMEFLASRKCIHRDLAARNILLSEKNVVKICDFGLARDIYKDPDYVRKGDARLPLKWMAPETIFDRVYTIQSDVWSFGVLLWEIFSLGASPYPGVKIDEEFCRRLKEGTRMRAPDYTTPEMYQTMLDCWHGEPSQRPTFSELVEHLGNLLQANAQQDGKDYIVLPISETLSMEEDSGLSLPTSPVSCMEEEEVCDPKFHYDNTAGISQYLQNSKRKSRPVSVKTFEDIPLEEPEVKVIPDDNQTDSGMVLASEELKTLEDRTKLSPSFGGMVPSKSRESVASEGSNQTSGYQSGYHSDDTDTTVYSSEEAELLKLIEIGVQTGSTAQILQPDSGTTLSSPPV
Procedure: as §2

In the case of CC12CCC3c4ccc(O)cc4CCC3C1CC1=C2NC(=N)NC1c1ccccc1Cl (stereo not shown) [Compound 5a, 2′-Imino-6′-(2-chlorophenyl)-estra-1(10),2,4,16(17)-tetraien-[17,16-d]-pyrimidino-3-ol], the IC50 ([1]; Homo sapiens, MCF7, MTT assay, MCF-7 cell line, read-out: IC50 (Mean ± SEM) MCF-7) is reported as 18.38 ± 0.13 µM, the “fold more toxic than the least active compound 7b towards MCF-7” value ([1]; ratio of IC50 values, 5a vs 7b) is reported as 2.5 fold and the IC50 [2] is reported as 211 ± 7.53 µM. The “decrease in tumor growth” value ([3]; after 2 days of treatment, vs control animals) was “about 25.36%”, the “maximal inhibition of tumor growth” value ([3]; after 10 days of treatment) was 91.1% and the “inhibition percentage of tumor growth” value ([3]; after 14 days of treatment) was 88.7%. For the same compound, the IC50 ([4]; GST-tagged HDM2, p53, ubiquitin, E1 and E2 (UbcH5B), read-out: IC50 (Mean ± SEM) In Vitro p53 Ubiquitination) was 16.4 ± 0.23 µM, the “fold more active than standard drug, in vitro p53 ubiquitination” value ([4]; vs diphenyl imidazole) was 15.8 fold and the IC50 ([5]; cells transfected with p53, MDM2, HIS-ubiquitin, exposed 6 h, read-out: IC50 (Mean ± SEM) In Vivo p53 Ubiquitination) was 220 ± 4.3 nM. The “fold more active than standard drug, in vivo p53 ubiquitination” value ([5]; vs diphenyl imidazole) was 8.6 fold, the IC50 [6] was 86 ± 3.2 nM and the IC50 [7] was 27 ± 1.2 nM. For the same compound, the melting point was 286 to 288 °C.
